This is an account of results in patent US20090215742A1, “AMIDE […]” (PFIZER, INC., priority 2005, published 2009).

This test addresses T1, HSP-90 (Homo sapiens, UniProt P07900).
T1 construct: fused on or other part: 6-His tag at the C-terminus
The test can be described thus: HSP-90 SPA (scintillation proximity assay) competition binding assay, displacement of tritiated propyl-Geldanamycin. The conditions noted are these: for inhibition at 1 µM: read-out: % inhibition @ 1 μM; for inhibition at 10 µM: read-out: % inhibition @ 10 μM. The method, then: Compounds of the present invention were evaluated for potency against HSP-90 using a SPA (scintillation proximity assay) competition binding assay. Briefly, either full length or N-terminal HSP-90 that contains a 6-His tag on its C-terminus binds to copper on Yttrium-silicate scintillant beads via the His-tag. Tritiated propyl-Geldanamycin (pGA), whose structure is shown below, is an analog of a natural inhibitor of HSP-90 called Geldanamycin.
Tritiated pGA, which contains a tritiated propyl-amine group added at the #17 position, binds HSP-90 and brings the isotope into proximity with the beads. […] The beta signal emitted from the isotope excites the scintillant, which creates a measurable signal. As competitive compounds are added to the assay mixture, they compete with bound tritiated pGA at the ATP-binding site on the N-terminal of HSP-90. When a compound displaces the labeled pGA, the signal is reduced (the beta-particles are no longer in proximity with the bead). This reduction in signal is used to quantify the extent to which the inhibitor/compound is competitive with pGA.
Typical reaction solutions contained 30 nM HSP-90 and 200 nM ^3H-pGA in binding buffer (100 mM Hepes, pH 7.5 and 150 mM KCl). […] Inhibitors were added to the HSP-90/^3H-pGA solutions at eleven different concentrations for Ki determinations. […] To determine percent inhibition, the compound was tested at 1 and 10 μM. The final DMSO in the samples was 4%. Copper-Ysi beads (Amersham, #RPNQ0096) that have been diluted in binding buffer were added to each well to give a final concentration of 100 μg/well. The plates were sealed, covered with a foil-covered lid and shaken for 30 minutes at room temperature. The beads were allowed to settle for 30 minutes after which the plates were counted using a Packard TopCount NXT instrument. This procedure has also been adapted for medium throughput using a Beckman Biomek FX. Samples were run in duplicate and on two separate days to assure an accurate value of Ki.
For Ki determinations, the corrected cpm's (actual cpm's minus background) were plotted vs. inhibitor concentration using GraphPad Prism software. […] The IC50 was then used to calculate the Ki by using the Cheng-Prusoff equation: […]
This is normally true when the observed IC50 is […] the HSP-90 concentration. For a tight binding inhibitor, the following equation can be applied: […]
EL and ELo are the radioligand-HSP-90 complexes in the presence and absence of inhibitor, respectively. EL/ELo represents the fractional signal in the presence of inhibitor. Io, Eo, and Lo are the inhibitor, HSP-90, and radioligand concentrations, respectively.
(In general: In a scintillation proximity assay essentially only radioactivity close to the scintillant gives light.)

Turning to `COC(=O)C1CCN(C(=O)c2ccc(O)cc2O)C1` (centres unmarked) [Example 94, methyl 1-(2,4-dihydroxybenzoyl)pyrrolidine-3-carboxylate], the inhibition (commonly the relative decrease from the control value, in per cent) at 1 µM turned out to be 21.1% and the inhibition at 10 µM is 62.1%.

Take `C[C@H]([C@@H](O)c1ccccc1)N(C)C(=O)c1ccc(O)cc1O` [Example 53, 2,4-dihydroxy-N-(2-hydroxy-1-methyl-2-phenylethyl)-N-methylbenzamide]: the inhibition at 1 µM was -7.8% and the inhibition at 10 µM amounted to 7.3%.

Turning to `Cc1ccc(C(=O)N2Cc3ccccc3C2)c(O)c1` [Example 27, 2-(1,3-dihydro-2H-isoindol-2-ylcarbonyl)-5-methylphenol], the inhibition at 1 µM is 0.2% and the inhibition at 10 µM turned out to be 26.2%.

As to `O=C(c1ccc(O)cc1O)N1CCOC[C@@H]1c1ccccc1` [Example 135, 4-[(3-phenylmorpholin-4-yl)carbonyl]benzene-1,3-diol], the inhibition at 1 µM came out at 15.9% and the inhibition at 10 µM amounted to 44.7%.

As to `O=C(c1ccc(O)cc1O)N1CCC2(C=Cc3cc(Cl)ccc3O2)CC1` [Example 79, 4-[(6-chloro-1′H-spiro[chromene-2,4′-piperidin]-1′-yl)carbonyl]benzene-1,3-diol], the inhibition at 1 µM came to 57.7% and the inhibition at 10 µM is 85.1%.

Regarding `O=C(c1ccc(O)cc1O)N1CCOCC2(CC(c3c(F)cccc3F)=NO2)C1` (centres unmarked) [Example 131, 4-{[3-(2,6-difluorophenyl)-1,7-dioxa-2,10-diazaspiro[4.6]undec-2-en-10-yl]carbonyl}benzene-1,3-diol], the inhibition at 1 µM was 24.7% and the inhibition at 10 µM was determined as 69.6%.

Take `Cc1cccc(N2CCN(C(=O)c3ccc(O)cc3O)CC2)n1` [Example 101, 4-{[4-(6-methylpyridin-2-yl)piperazin-1-yl]carbonyl}benzene-1,3-diol]: the inhibition at 1 µM stood at 21.8% and the inhibition at 10 µM was determined as 70.2%.

In the case of `O=C(c1ccc(O)cc1O)N1CCN(c2nc3ccc(Cl)cc3o2)CC1` [Example 125, 4-{[4-(6-chloro-1,3-benzoxazol-2-yl)piperazin-1-yl]carbonyl}benzene-1,3-diol], the inhibition at 1 µM worked out at 22.4% and the inhibition at 10 µM was found to be 59.8%.

As for `O=C(c1ccc(O)cc1O)N1CCC(Oc2cccc(Cl)c2)CC1` [Example 69, 4-{[4-(3-chlorophenoxy)piperidin-1-yl]carbonyl}benzene-1,3-diol], the inhibition at 1 µM turned out to be 33.9% and the inhibition at 10 µM came out at 76.6%.

For the compound `Cc1noc(C)c1COCC1COCCN(C(=O)c2ccc(O)cc2O)C1` (centres unmarked) [Example 98, 4-[(6-{[(3,5-dimethylisoxazol-4-yl)methoxy]methyl}-1,4-oxazepan-4-yl)carbonyl]benzene-1,3-diol], the inhibition at 1 µM came out at 26.7% and the inhibition at 10 µM was 65.9%.

As for `CN(Cc1ccc(Cl)cc1)C(=O)c1ccc(O)cc1O` [Example 106, N-(4-chlorobenzyl)-2,4-dihydroxy-N-methylbenzamide], the inhibition at 1 µM was 26.9% and the inhibition at 10 µM stood at 72.4%.

Take `COc1ccccc1-c1nnc([C@H]2CCCN2C(=O)c2ccc(O)cc2O)o1` [Example 92, 4-({2-[5-(2-methoxyphenyl)-1,3,4-oxadiazol-2-yl]pyrrolidin-1-yl}carbonyl)benzene-1,3-diol]: the inhibition at 1 µM is 9% and the inhibition at 10 µM is 22.4%.

For `Cc1cc(C)c2c(c1)CCC1(CCN(C(=O)c3ccc(O)cc3O)CC1)O2` [Example 75, 4-[(6,8-dimethyl-3,4-dihydro-1′H-spiro[chromene-2,4′-piperidin]-1′-yl)carbonyl]benzene 1,3-diol], the inhibition at 1 µM was determined as 51.6% and the inhibition at 10 µM came to 82%.

On to `O=C(c1ccc(O)cc1O)N1CCCN(c2nc3cc(Cl)ccc3o2)CC1` [Example 88, 4-{[4-(5-chloro-1,3-benzoxazol-2-yl)-1,4-diazepan-1-yl]carbonyl}benzene-1,3-diol], for which the inhibition at 1 µM worked out at 4.3% and the inhibition at 10 µM was determined as 42.9%.

Turning to `CC1CCN(C(=O)c2ccc(O)cc2O)CC1` [Example 42, 4-[(4-methylpiperidin-1-yl)carbonyl]benzene-1,3-diol], the inhibition at 1 µM came to 59.9% and the inhibition at 10 µM amounted to 86.5%.

Consider `O=C(c1ccc(O)cc1O)N1CCn2cnnc2C1` [Example 136, 4-(5,6-dihydro[1,2,4]triazolo[4,3-a]pyrazin-7(8H)-ylcarbonyl)benzene-1,3-diol], for which the inhibition at 1 µM was determined as 10.4% and the inhibition at 10 µM is 47.8%.

Regarding `O=C(c1ccc(O)cc1O)N1CCC(Oc2ccccc2)CC1` [Example 71, 4-[(4-phenoxypiperidin-1-yl)carbonyl]benzene-1,3-diol], the inhibition at 1 µM is 37.3% and the inhibition at 10 µM stood at 79.3%.

Consider `O=C(c1ccc(O)cc1O)N1CCN(c2cnccn2)CC1` [Example 111, 4-[(4-pyrazin-2-ylpiperazin-1-yl)carbonyl]benzene-1,3-diol], for which the inhibition at 1 µM amounted to 5.9% and the inhibition at 10 µM worked out at 64.2%.

`O=C(c1ccc(O)cc1O)N1CCC(O)(c2ccccc2)CC1` [Example 77, 4-[(4-hydroxy-4-phenylpiperidin-1-yl)carbonyl]benzene-1,3-diol]: the inhibition at 1 µM turned out to be 44.6% and the inhibition at 10 µM worked out at 79.6%.

As to `CCOc1cc2c(cc1OCC)CN(C(=O)c1ccc(O)cc1O)CC2` [Example 56, 4-[(6,7-diethoxy-3,4-dihydroisoquinolin-2(1H)-yl)carbonyl]benzene-1,3-diol], the inhibition at 1 µM is 27% and the inhibition at 10 µM amounted to 73%.

With `O=C(c1cc(-c2ccc(F)cc2F)ccc1O)N1Cc2ccccc2C1` [Example 28, 3-(1,3-dihydro-2H-isoindol-2-ylcarbonyl)-2′,4′-difluorobiphenyl-4-ol], the inhibition at 1 µM was determined as 50.8% and the inhibition at 10 µM amounted to 76.2%.

For the compound `O=C(c1ccc(O)cc1O)N1CCSC1` [Example 117, 4-(1,3-thiazolidin-3-ylcarbonyl)benzene-1,3-diol], the inhibition at 1 µM is 65% and the inhibition at 10 µM is 89.2%.

For the compound `O=C(c1ccc(O)cc1O)N1CCC(c2ccccc2)(c2ccccc2)CC1` [Example 54, 4-[(4,4-diphenylpiperidin-1-yl)carbonyl]benzene-1,3-diol], the inhibition at 1 µM stood at 50.3% and the inhibition at 10 µM turned out to be 85.5%.

For the compound `O=C(c1ccc(O)cc1O)N1CCC(CCc2ccccc2)CC1` [Example 49, 4-{[4-(2-phenylethyl)piperidin-1-yl]carbonyl}benzene-1,3-diol], the inhibition at 1 µM worked out at 61.2% and the inhibition at 10 µM is 86.3%.

Consider `O=C(c1ccc(O)cc1O)N1CCc2ccccc2C1` [Example 109, 4-(3,4-dihydroisoquinolin-2(1H)-ylcarbonyl)benzene-1,3-diol], for which the inhibition at 1 µM turned out to be 68% and the inhibition at 10 µM was determined as 87.2%.

As to `CCc1nccc(-c2ccc(O)c(C(=O)N3Cc4ccccc4C3)c2)n1` [Example 34, 2-(1,3-dihydro-2H-isoindol-2-ylcarbonyl)-4-(2-ethylpyrimidin-4-yl)phenol], the inhibition at 1 µM was -3.1% and the inhibition at 10 µM was 43%.

With `O=C(c1ccc(O)cc1O)N1CCC(O)(c2ccc(Cl)c(C(F)(F)F)c2)CC1` [Example 78, 4-({4-[4-chloro-3-(trifluoromethyl)phenyl]-4-hydroxypiperidin-1-yl}carbonyl)benzene-1,3-diol], the inhibition at 1 µM came out at 17.7% and the inhibition at 10 µM turned out to be 68.1%.

Take `CN(Cc1nnc(-c2cccc(C#N)c2)o1)C(=O)c1ccc(O)cc1O` [Example 121, N-{[5-(3-cyanophenyl)-1,3,4-oxadiazol-2-yl]methyl}-2,4-dihydroxy-N-methylbenzamide]: the inhibition at 1 µM came out at 10.6% and the inhibition at 10 µM turned out to be 64.6%.

As for `Cc1nc2c(s1)CN(C(=O)c1ccc(O)cc1O)CC2` [Example 104, 4-[(2-methyl-6,7-dihydro[1,3]thiazolo[5,4-c]pyridin-5(4H)-yl)carbonyl]benzene-1,3-diol], the inhibition at 1 µM came out at 33.9% and the inhibition at 10 µM is 74.3%.

With `O=C(c1ccc(O)cc1O)N1CCCCC1CCC1CCCC1` (centres unmarked) [Example 44, 4-{[2-(2-cyclopentylethyl)piperidin-1-yl]carbonyl}benzene-1,3-diol], the inhibition at 1 µM came to 82.4% and the inhibition at 10 µM was 90.5%.

Take `O=C(c1ccc(O)cc1O)N1CCC(CCc2ncccn2)CC1` [Example 46, 4-{[4-(2-pyrimidin-2-ylethyl)piperidin-1-yl]carbonyl}benzene-1,3-diol]: the inhibition at 1 µM is 44.9% and the inhibition at 10 µM is 77.1%.
